Measured values reported in patent publication EP0926242A1, “GLIOTOXIN DERIVATIVES AND ANTICANCER AGENT COMPRISING THE SAME” (priority 1996, dated 1998).
≈ marks a conversion by molar mass, not a printed value.

Columns and labels:
[1] = system: mouse carcinoma of the colon COLON-26; assay: Evaluation in vivo using mouse carcinoma of the colon COLON-26 (Example 1); details: day 21, CDFI mice
Protocol: CDFI mice (female: 4 weeks old) were bought, and colon-26 subcultured in vivo in the subcutaneous tissue was taken out. The colon-26 was minced in a Petridish, and transplanted into the sulcutaneous tissue of CDFI mice in an amount of 10 mg/mouse by a trucker. The transplanted day was assigned day 0, and the size of the tumor and body weight were measured on day 7 and divided into groups by n=4. The size of tumor was calculated as tumor weight by the following formula. (Tumor Weight (mg) = Tumor Volume (mm)^3 =1/2 × Major Axis (mm) × Minor Axis (mm))^2 [formula]
Administration was carried out from day 7 according to the following schedule. Dose was 0.2 mL/mouse, and injected into abdominal cavity. Acetylgliotoxin was dissolved in dimethyl sulfoxide (DMSO) in a concentration of 100 mg/mL, and adjusted to an object concentration (0.5 mg/kg, 1 mg/kg, 10 mg/kg, 20 mg/kg) by 5% Tween 80 (saline solution). In the evaluation of […], 1 mg/kg, injection was carried out every day for 5 days, in the case of 10 mg/kg, injected twice on day 7 and day 8, and in the case of 20 mg/kg, injected once on day 7.
The anticancer effect was evaluated by the inhibition rate of tumor cell multiplication (IR calculated from the weight of tumor. IR was obtained by the following formula. IR (%) = (1-Tumor Weight of Administration Group/Tumor Weight of Control Group) [formula]

U937 (human leukemia ) = assay: Cytotoxity of acetylgliotoxin by the MTT method; assay type: cell-based; details: U-937, U937, 72 hours
Protocol: (§1) Antitumor activity of acetylgliotoxin against various cancer cells was measured by the MTT method. Various cancer cells were adjusted to 4.0 × 10^4 cells/mL by using a medium (hereinafter referred to as medium A) composed of RPMI 1640 medium (GIBCO) containing 10% fetal calf serum, and each 0.1 mL of the cancer cells was pipetted into each well of a 96 well microtiter plate. The plate was incubated in a carbon dioxide gas incubator at 37 °C for 20 hours, and each 0.025 mL of samples (test compounds) suitably diluted with the medium A was added. Then, incubation was further carried out in the carbon dioxide gas incubator at 37 °C for 72 hours. Each 0.01 mL of the MTT solution adjusted to 5 mg/mL by using Dulbecco's PBS (-) (Nissui) was added thereto, and incubated in the carbon dioxide gas incubator at 37 °C for 3 hours. Subsequently, each 0.05 mL of 0.01 N HCl/20 % SDS was added. Produced crystals were dissolved, and absorbance at 570 nm was measured by a microplate reader. By comparing the absorbance of the cells treated with the sample in the known concentration with that of non-treated cells, the sample concentration which inhibits multiplication of the cells at the rate of 50% (IC50) was calculated. Apoptosis was determined by incubating the plate in the carbon dioxide gas incubator at 37 °C for 20 hours, adding each 0.025 mL of samples (test compounds) suitably diluted with the medium A, incubating in the carbon dioxide gas incubator at 37 °C for 72 hours, according to the above method, adding nucleus-staining fluorescent dye DAPI (4,6 - diaminodino-2-henylindole) to each well so as to become 0.5 ng/mL, and after leaving at room temperature for 10 minutes, confirming agglomeration of chromosomes by using a fluorescence microscope.
(§2) Human leukemia cells (K 562 : Dainippon Seiyaku), human carcinoma cells of the colon (HCT-15, HCT-116, SW946: Dainippon Seiyaku), human leukemia cells (U 937: Dainippon Seiyaku), human lung cancer cells (LX-1: Biseibutsu Kagaku Kenkyu-sho), mouse leukemia cells (P 388 : Dainippon Seiyaku), mouse carcinoma cells of the colon (colon-26 : Gan Kenkyu-kai, Gan Kenkyu-sho) Table 1

[2] = system: HCT-15 (human carcinoma of the colon); assay: Cytotoxity of acetylgliotoxin by the MTT method; assay type: cell-based; details: HCT-15, 72 hours
Protocol: as §1, §2

[3] = system: SW948 (human carcinoma of the colon); assay: Cytotoxity of acetylgliotoxin by the MTT method; assay type: cell-based; details: SW948, 72 hours
Protocol: as §1, §2

[4] = system: colon-26 (mouse carcinoma of the colon ); assay: Cytotoxity of acetylgliotoxin by the MTT method; assay type: cell-based; details: colon-26, 72 hours
Protocol: as §1, §2

[5] = system: HCT-116 (human carcinoma of the colon); assay: Cytotoxity of acetylgliotoxin by the MTT method; assay type: cell-based; details: HCT-116, 72 hours
Protocol: as §1, §2

[6] = system: LX-1 (human lung cancer ); assay: Cytotoxity of acetylgliotoxin by the MTT method; assay type: cell-based; details: LX-1, 72 hours
Protocol: as §1, §2

P388 (mouse leukemia ) = assay: Cytotoxity of acetylgliotoxin by the MTT method; assay type: cell-based; details: P388, 72 hours
Protocol: as §1, §2

[7] = system: Human carcinoma of the colon cell strain HCT-116; assay: Tertiary culture using test human cancer, killed cells by MTT method; assay type: cell-based; details: incubated 3 days
Protocol: Tertiary cultures were carried out using a human carcinoma of the colon tissue in stage 2b. The tertiary cultures were carried out according to the reported method (Int.J.Cancer Res., 82, 607-612 (1991), Gan to Kagakuryoho, 18, 239-243 (1991), Gan to Kagakuryoho, 19, 743-748 (1992)). The extracted tissue of carninoma of the colon was cut into square pieces having a side of about 2 mm, and incubated in a RPMI- 1640 medium containing 10 % fetal calf serum under 5 % CO2 at 37 °C for 3 days. Existing anticancer agents or acetylgliotoxin were diluted and added, and further incubated for 3 days. Then, the rate of killed cells was determined by the MTT method. The tertiary cultures using the test human cancer were carried out as follows: Human carcinoma of the colon cell strain HCT-116 was transplanted into the subcutaneous tissue of a nude mouse (Balb nu/nu) to induce tumor. The cancer tissue was extracted from the tumor-induced portion, and cut into square pieces having a side of 2 mm. The evaluation of the existing anticancer agents and acetylyliotoxin was earried out according to the aforementioned method.

Question: Which results are given for `CC(=O)OC1C=CC=C2CC34SSC(CO)(C(=O)N3C21)N(C)C4=O` (centres unmarked) [acetylgliotoxin]?
Answer: I. R. (%) ([1]; 0.5 mg/kg×5 i.p.(d7-11)): 28%; I. R. (%) ([1]; 1 mg/kg×5 i.p.(d7-11)): 19%; I. R. (%) ([1]; 10 mg/kg×2 i.p.(d7, 8)): 38%; I. R. (%) ([1]; 20 mg/kg×1 i.p.(d7)): 34%; IC50 (U937 (human leukemia )): 0.014 µg/mL (≈ 0.038 µM); IC50 [2]: 0.039 µg/mL (≈ 0.106 µM); IC50 [3]: 0.19 µg/mL (≈ 0.516 µM); IC50 [4]: 0.076 µg/mL (≈ 0.206 µM); IC50 [5]: 0.18 µg/mL (≈ 0.489 µM); IC50 [6]: 0.074 µg/mL (≈ 0.201 µM); IC50 (P388 (mouse leukemia )): 0.0058 µg/mL (≈ 0.0157 µM); I. R. (%) ([7]; conc. 6.25 ug/mL): 43%; I. R. (%) ([7]; conc. 12.5 ug/mL): 56%; I. R. (%) ([7]; conc. 25 ug/mL): 67%
